In US20250223404A1, “SHAPED ARTICLE COMPRISING A POLY(ARYL ETHER SULFONE) (PAES) POLYMER AND METHOD OF MAKING USING MELT PROCESSING” (Solvay Specialty Polymers USA, LLC, priority 2022, published 2025):
Like-named read-outs stand apart in the source and are kept apart here.

Biological target: T1, human Estrogen receptor alpha (ERα) (Homo sapiens, UniProt P03372)
T1 construct: expressed in transfected cells; host or cells: GeneBLAzer ER-α-UAS-bla GripTite 293 cells (stably integrated)
T1 sequence (P03372 311-547 limits assumed): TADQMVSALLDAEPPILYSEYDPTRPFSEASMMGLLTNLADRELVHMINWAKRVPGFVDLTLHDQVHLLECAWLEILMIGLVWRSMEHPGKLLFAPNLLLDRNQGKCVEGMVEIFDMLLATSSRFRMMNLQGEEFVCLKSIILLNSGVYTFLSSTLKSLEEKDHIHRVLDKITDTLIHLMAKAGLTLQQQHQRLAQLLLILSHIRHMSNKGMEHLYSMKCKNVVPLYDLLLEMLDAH
Assay: GeneBLAzer Cell-Based Nuclear Receptor Assay (beta-lactamase reporter), ER-α-UAS-bla GripTite 293 cells
Conditions: for estrogenic activity on ERα cells compared with BPA, BPS and BP: in words
Procedure: The response value “EC50” was measured by using the GeneBLAzer® Cell-Based Nuclear Receptor Assay technology which uses the GeneBLAzer®.
The monomers (see Table 7) were dissolved in 100% biological-grade DMSO at a concentration of 7 to 250000 nM (nanomolar). The ER-α-UAS-bla GripTite™ 293 cells were used to measure EC50. The higher the EC50 value is, the weaker the estrogenic agonist activity is for the monomer tested.
The GeneBLAzer® ER-α-UAS-bla GripTite™ cells contain a ligand-binding domain (LBD) of the human Estrogen receptor alpha (ERα) fused to a DNA-binding domain of GAL4 plasmid stably integrated in the GeneBLAzer® UAS-bla GripTite™ cell line. The GeneBLAzer® UAS-bla GripTite™ cells stably express a beta-lactamase reporter gene under the transcriptional control of an upstream activator sequence (UAS). When an estrogenic agonist binds to the LBD of the GAL4 (DBD)-ER α (LBD) fusion protein, the protein binds to the UAS, resulting in expression of beta-lactamase.

[1] = estrogen agonist activity, ER-α-UAS-bla GripTite 293 cells, monomers in DMSO, 7 to 250000 nM, read-out: EC50 (nM) response value to the estrogen receptor alpha
[2] = estrogen agonist activity on ERα cells, read-out: EC50 value

EC50 [1] [nM] | estrogenic activity on ERα cells compared with BPA, BPS and BP | SMILES | EC50 [2] [nM]
32000 | much lower estrogenic activity | Oc1ccc2ccc(O)cc2c1 [2,7-NDO, 2,7 Napthalene diol] | 
> 79100 | much lower estrogenic activity | Oc1cc2ccccc2cc1O [2,3-NDO, 2,3 Napthalene diol] | ≥ 30000
791 |  | O=S(=O)(c1ccc(O)cc1)c1ccc(O)cc1 [BPS, 4,4′-dihydroxydiphenyl sulfone, reference compound] | 

SMILES | EC50 [1] [nM] | estrogenic activity on ERα cells compared with BPA, BPS and BP | EC50 [2] [nM]
Oc1cccc2c(O)cccc12 [1,5-NDO, 1,5 Naphthalene diol] | > 79100 | much lower estrogenic activity | ≥ 30000
